In patent publication US9023789B2, “Amylin analogs and pharmaceutical compositions thereof” (Novo Nordisk A/S, priority 2012, dated 2015):
Numbered stars: 1 amine (or outer) side, 2 acyl side, 3 side chain; on linkers, the order of the positions; unused ones are H or OH. Bridge positions count the residues as written; N and C are the ends. Side chains are listed from the residue outwards. Peptide text beside a SMILES is read from it. * marks the point of attachment. C20 diacid = O=C(O)CCCCCCCCCCCCCCCCCCC(=O)*; γGlu = O=C(O)[C@H](CCC(=O)[*:2])N[*:1]; AEEA = NCCOCCOCC(=O)O

How the values were obtained:
[1] = target: T1, rat amylin receptor (rat calcitonin receptor + rat RAMP 3) (Rattus norvegicus, UniProt P32214+Q9JJ73); assay: ASSAY (VI) binding to the rat amylin receptor; conditions: for IC50: binding to rat amylin receptor, read-out: rAmylin-R bind IC50
T1 construct: expressed in transfected cells; host or cells: BHK tk'ts 13 (transient, FuGENE 6), membranes
T1 sequence (P32214 25-479 isoform P32214-2 limits assumed): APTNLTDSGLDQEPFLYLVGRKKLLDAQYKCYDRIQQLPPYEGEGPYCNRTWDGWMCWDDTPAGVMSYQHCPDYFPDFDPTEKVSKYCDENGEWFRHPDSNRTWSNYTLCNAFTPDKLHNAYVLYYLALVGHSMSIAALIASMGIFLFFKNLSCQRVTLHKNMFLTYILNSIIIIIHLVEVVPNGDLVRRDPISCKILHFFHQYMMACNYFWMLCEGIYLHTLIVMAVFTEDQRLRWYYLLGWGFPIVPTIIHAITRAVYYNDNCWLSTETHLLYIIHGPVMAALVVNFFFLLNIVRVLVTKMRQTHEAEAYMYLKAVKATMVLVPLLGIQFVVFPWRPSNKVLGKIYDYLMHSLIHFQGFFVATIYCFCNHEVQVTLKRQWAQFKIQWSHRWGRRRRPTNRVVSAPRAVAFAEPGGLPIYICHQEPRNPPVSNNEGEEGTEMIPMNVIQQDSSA
T1 sequence (Q9JJ73 23-147 partner): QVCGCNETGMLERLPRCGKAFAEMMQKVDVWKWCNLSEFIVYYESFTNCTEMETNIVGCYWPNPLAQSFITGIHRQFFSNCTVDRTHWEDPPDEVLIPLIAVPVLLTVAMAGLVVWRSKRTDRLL
How it was run: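 The cell-membrane assay assessed binding at the rat amylin receptor. BHK tk′ts 13 cells were transfected transiently with rat calcitonin receptor, with FuGENE® 6 (Roche) as the transfection reagent, used per the manufacturer's recommendations. Approximately 48 hours after transfection the cells were harvested, and membranes were prepared for measuring binding.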

[2] = ASSAY (III) ThT fibrillation assay for physical stability; assay type: physicochemical
How it was run: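 Physical stability scored by ThT fluorescence (444 nm excitation, 485 nm emission) tracked every 20 min during 37 °C incubation with 960 rpm shaking, ThT at 1 μM final. Values are replicate means with SD at chosen times; HPLC against pramlintide standard gives initial and post-assay soluble concentrations.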

[3] = Table 7, rat binding selectivity, rCTR IC50 / rAmylin-R IC50
[4] = Table 7a (preferred compounds), rat binding selectivity, rCTR IC50 / rAmylin-R IC50
[5] = ratio of rCTR bind IC50 to rAmylin-R bind IC50

Row | Structure (SMILES) | IC50 ([1]; Table 7) | Ratio rCT/rAmylin binding [1, 3] | Ratio rCT/rAmylin binding [1, 4] | Ratio rCT/rAmylin binding [1, 5] | ThT pH 4.0 lag time (h) [2]
1 | CC[C@H](C)[C@H](NC(=O)[C@H](C)NC(=O)CNC(=O)[C@H](Cc1ccccc1)NC(=O)[C@H](CC(N)=O)NC(=O)[C@@H]1CCCN1C(=O)[C@H](CO)NC(=O)[C@H](CO)NC(=O)[C@H](Cc1c[nH]cn1)NC(=O)[C@H](CCCNC(=N)N)NC(=O)[C@H](CC(C)C)NC(=O)[C@H](Cc1ccccc1)NC(=O)[C@H](CC(N)=O)NC(=O)[C@H](C)NC(=O)[C@H](CC(C)C)NC(=O)[C@H](CCCNC(=N)N)NC(=O)[C@H](CCC(N)=O)NC(=O)[C@@H](NC(=O)[C@H](C)NC(=O)[C@@H]1CSSC[C@H](NC(=O)[C@@H](N)CCCCNC(=O)COCCOCCNC(=O)CC[C@H](NC(=O)CCCCCCCCCCCCCCCCCCC(=O)O)C(=O)O)C(=O)N[C@@H](CC(N)=O)C(=O)N[C@@H]([C@@H](C)O)C(=O)N[C@@H](C)C(=O)N[C@@H]([C@@H](C)O)C(=O)N1)[C@@H](C)O)C(=O)N1CCC[C@H]1C(=O)N[C@@H](CO)C(=O)N[C@@H](CO)C(=O)N[C@H](C(=O)N[C@@H](CC(N)=O)C(=O)N[C@H](C(=O)NCC(=O)N[C@@H](Cc1c[nH]cn1)C(=O)N[C@@H](CC(N)=O)C(=O)N[C@H](C(=O)N[C@@H](Cc1ccc(O)cc1)C(N)=O)[C@@H](C)O)C(C)C)[C@@H](C)O [Example 76] (H-K([AEEA-γGlu-C20 diacid])CNTATCATQRLANFLRHSSPNFGAIPSSTNVGHNTY-NH2; disulfide 2-7; N-terminus assumed) | 0.686 nM | 56.8 | 56.8 | 56.8 | 22 h
2 | CC[C@H](C)[C@H](NC(=O)[C@H](C)NC(=O)CNC(=O)[C@H](Cc1ccccc1)NC(=O)[C@H](CC(N)=O)NC(=O)[C@@H]1CCCN1C(=O)[C@H](CO)NC(=O)[C@H](CO)NC(=O)[C@H](Cc1c[nH]cn1)NC(=O)[C@H](CCCNC(=N)N)NC(=O)[C@H](CC(C)C)NC(=O)[C@H](Cc1ccccc1)NC(=O)[C@H](C)NC(=O)[C@H](C)NC(=O)[C@H](CC(C)C)NC(=O)[C@H](CCCNC(=N)N)NC(=O)[C@H](CCC(N)=O)NC(=O)[C@@H](NC(=O)[C@H](C)NC(=O)[C@@H]1CSSC[C@H](NC(=O)[C@H](CCCNC(=N)N)NC(=O)CNC(=O)CC[C@H](NC(=O)CCCCCCCCCCCCCCCCCCC(=O)O)C(=O)O)C(=O)N[C@@H](CC(N)=O)C(=O)N[C@@H]([C@@H](C)O)C(=O)N[C@@H](C)C(=O)N[C@@H]([C@@H](C)O)C(=O)N1)[C@@H](C)O)C(=O)N1CCC[C@H]1C(=O)N[C@@H](CO)C(=O)N[C@@H](CO)C(=O)N[C@H](C(=O)N[C@@H](CC(N)=O)C(=O)N[C@H](C(=O)NCC(=O)N[C@@H](Cc1c[nH]cn1)C(=O)N[C@@H](CC(N)=O)C(=O)N[C@H](C(=O)N[C@@H](Cc1ccc(O)cc1)C(N)=O)[C@@H](C)O)C(C)C)[C@@H](C)O [Example 101] ({C20 diacid-γGlu}-GRCNTATCATQRLAAFLRHSSPNFGAIPSSTNVGHNTY-NH2; disulfide 3-8) | 8.07 nM | 60.9 | 60.9 | 60.9 | 45 h
3 | CC[C@H](C)[C@H](NC(=O)[C@H](C)NC(=O)CNC(=O)[C@H](Cc1ccccc1)NC(=O)[C@H](CC(N)=O)NC(=O)[C@@H]1CCCN1C(=O)[C@H](CO)NC(=O)[C@H](CO)NC(=O)[C@H](Cc1c[nH]cn1)NC(=O)[C@H](CCCNC(=N)N)NC(=O)[C@H](CC(C)C)NC(=O)[C@H](Cc1ccccc1)NC(=O)[C@H](Cc1c[nH]cn1)NC(=O)[C@H](C)NC(=O)[C@H](CC(C)C)NC(=O)[C@H](CCCNC(=N)N)NC(=O)[C@H](CCC(N)=O)NC(=O)[C@@H](NC(=O)[C@H](C)NC(=O)[C@@H]1CSSC[C@H](NC(=O)[C@H](CCCNC(=N)N)NC(=O)CNC(=O)CC[C@H](NC(=O)CCCCCCCCCCCCCCCCCCC(=O)O)C(=O)O)C(=O)N[C@@H](CC(N)=O)C(=O)N[C@@H]([C@@H](C)O)C(=O)N[C@@H](C)C(=O)N[C@@H]([C@@H](C)O)C(=O)N1)[C@@H](C)O)C(=O)N1CCC[C@H]1C(=O)N[C@@H](CO)C(=O)N[C@@H](CO)C(=O)N[C@H](C(=O)N[C@@H](CC(N)=O)C(=O)N[C@H](C(=O)NCC(=O)N1CCC[C@H]1C(=O)N[C@@H](CC(N)=O)C(=O)N[C@H](C(=O)N[C@@H](Cc1ccc(O)cc1)C(N)=O)[C@@H](C)O)C(C)C)[C@@H](C)O [Example 102] ({C20 diacid-γGlu}-GRCNTATCATQRLAHFLRHSSPNFGAIPSSTNVGPNTY-NH2; disulfide 3-8 (inferred)) | 0.674 nM | 97.7 | 97.7 | 97.7 | 26 h
4 | CC[C@H](C)[C@H](NC(=O)[C@H](C)NC(=O)CNC(=O)[C@H](Cc1ccccc1)NC(=O)[C@H](CC(N)=O)NC(=O)[C@@H]1CCCN1C(=O)[C@H](CO)NC(=O)[C@H](CO)NC(=O)[C@H](Cc1c[nH]cn1)NC(=O)[C@H](CCCNC(=N)N)NC(=O)[C@H](CC(C)C)NC(=O)[C@H](Cc1ccccc1)NC(=O)[C@H](CC(N)=O)NC(=O)[C@H](C)NC(=O)[C@H](CC(C)C)NC(=O)[C@H](CCCNC(=N)N)NC(=O)[C@H](CCC(N)=O)NC(=O)[C@@H](NC(=O)[C@H](C)NC(=O)[C@@H]1CSSC[C@H](NC(=O)[C@@H](N)CCCCNC(=O)CC[C@H](NC(=O)CCCCCCCCCCCCC(=O)O)C(=O)O)C(=O)N[C@@H](CC(N)=O)C(=O)N[C@@H]([C@@H](C)O)C(=O)N[C@@H](C)C(=O)N[C@@H]([C@@H](C)O)C(=O)N1)[C@@H](C)O)C(=O)N1CCC[C@H]1C(=O)N[C@@H](CO)C(=O)N[C@@H](CO)C(=O)N[C@H](C(=O)N[C@@H](CC(N)=O)C(=O)N[C@H](C(=O)NCC(=O)N[C@@H](Cc1c[nH]cn1)C(=O)N[C@@H](CC(N)=O)C(=O)N[C@H](C(=O)N[C@@H](Cc1ccc(O)cc1)C(N)=O)[C@@H](C)O)C(C)C)[C@@H](C)O [Example 112] | 2.52 nM | 280.1 | 280.1 | 280.1 | 30 h
5 | CC[C@H](C)[C@H](NC(=O)[C@H](C)NC(=O)CNC(=O)[C@H](Cc1ccccc1)NC(=O)[C@H](CC(N)=O)NC(=O)[C@@H]1CCCN1C(=O)[C@H](CO)NC(=O)[C@H](CO)NC(=O)[C@H](Cc1c[nH]cn1)NC(=O)[C@H](CCCNC(=N)N)NC(=O)[C@H](CC(C)C)NC(=O)[C@H](Cc1ccccc1)NC(=O)[C@H](CC(N)=O)NC(=O)[C@H](C)NC(=O)[C@H](CC(C)C)NC(=O)[C@H](CCCNC(=N)N)NC(=O)[C@H](CCC(N)=O)NC(=O)[C@@H](NC(=O)[C@H](C)NC(=O)[C@@H]1CSSC[C@H](NC(=O)[C@@H](N)CCCCNC(=O)CC[C@H](NC(=O)CCCCCCCCCCCCCCCCCCC(=O)O)C(=O)O)C(=O)N[C@@H](CC(N)=O)C(=O)N[C@@H]([C@@H](C)O)C(=O)N[C@@H](C)C(=O)N[C@@H]([C@@H](C)O)C(=O)N1)[C@@H](C)O)C(=O)N1CCC[C@H]1C(=O)N[C@@H](CO)C(=O)N[C@@H](CO)C(=O)N[C@H](C(=O)N[C@@H](CC(N)=O)C(=O)N[C@H](C(=O)NCC(=O)N[C@@H](Cc1c[nH]cn1)C(=O)N[C@@H](CC(N)=O)C(=O)N[C@H](C(=O)N[C@@H](Cc1ccc(O)cc1)C(N)=O)[C@@H](C)O)C(C)C)[C@@H](C)O [Example 77] | 1.5 nM | 136.8 | 136.8 | 136.8 | 21 h
